Reference: patent US7745646B2, “Bicyclic heteroaryl inhibitors of PDE4” (Kalypsys, Inc., priority 2006, dated 2010)

What follows are molecules tested against T1, PDE4B (Homo sapiens, UniProt Q07343) (assay: Novel coupled PDE/AK bioluminescent assay, PDE4B inhibition). Conditions: PDE4B catalytic domain.
T1 construct: hex-histidine (His6) (N); made in house
Assay type: biochemical
Source text: We developed a novel coupled PDE/AK bioluminescent high-throughput assay to measure the activity of phosphodiesterases. In the PDE/AK assay, the AMP produced from the hydrolysis of cAMP by phosphodiesterase is converted to adenosine diphosphate (ADP) by the phosphotransferase activity of adenylate kinase (also known as ADK or myokinase). Adenylate kinase will catalyze the conversion of 1 mole of AMP and 1 mole of ATP into 2 moles of ADP. Thus the conversion of AMP to ADP will result in the subsequent loss of ATP. The decrease in ATP concentration can be monitored as light output using luciferase in a reaction that requires ATP to produce light. The PDE/AK assay uses luciferase, which catalyzes the production of light from ATP present in the reaction mix. The amount of emitted light is inversely proportional to the level of AMP present in the reaction. Test compounds are incubated with the phosphodiesterases and phosphodiesterase inhibitors will decrease the rate of cAMP hydrolysis and decrease the subsequent production of AMP.
A novel coupled PDE/AK assay was utilized to measure the inhibitory activity of compounds on PDE isoforms. The catalytic domain of PDE4B was fused to an amino-terminus hex-histidine affinity tag and purified. PDE4B enzyme was incubated with compounds for 10 minutes. Cyclic AMP substrate, ATP and adenylate kinase were then added to the PDE enzyme mix and incubated for 45 minutes at room temperature. A commercial ATP detection assay, Perkin Elmer's easyLite ATP detection reagent, was then added to measure the relative amount of ATP present in the reaction. After 10 minute incubation, the luminescent signal was quantitated with either the Perkin Elmer Viewlux or Molecular Devices Acquest or Analyst.

T1 sequence (Q07343 330-659 limits assumed, species assumed): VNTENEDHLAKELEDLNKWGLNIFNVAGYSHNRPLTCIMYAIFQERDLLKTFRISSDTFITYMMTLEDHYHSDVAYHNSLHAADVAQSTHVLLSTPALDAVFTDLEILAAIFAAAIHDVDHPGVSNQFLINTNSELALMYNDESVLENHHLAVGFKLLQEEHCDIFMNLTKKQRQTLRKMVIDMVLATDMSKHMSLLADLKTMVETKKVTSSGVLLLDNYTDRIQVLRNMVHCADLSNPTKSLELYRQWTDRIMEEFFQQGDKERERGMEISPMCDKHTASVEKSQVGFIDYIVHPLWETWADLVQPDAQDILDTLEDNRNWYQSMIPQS

Row | Structure (SMILES) | IC50
1 | COc1ccc2c(Nc3c(Cl)cncc3Cl)c(O)c(=O)oc2c1OC1CCCC1 [Example 4, 8-(Cyclopentyloxy)-4-(3,5-dichloropyridin-4-ylamino)-3-hydroxy-7-methoxy-2H-chromen-2-one] | > 1000 nM
2 | COc1ccc2c(NCC(=O)O)cc(=O)oc2c1OC1CCCC1 [Example 7, 2-(8-(Cyclopentyloxy)-7-methoxy-2-oxo-2H-chromen-4-ylamino)acetic acid] | > 1000 nM
3 | CCOC(=O)CNc1cc(=O)oc2c(OC3CCCC3)c(OC)ccc12 [Example 8, Ethyl 2-(8-(cyclopentyloxy)-7-methoxy-2-oxo-2H-chromen-4-ylamino)acetate] | > 1000 nM
4 | COc1ccc2c(NCC(N)=O)cc(=O)oc2c1OC1CCCC1 [Example 9, 2-(8-(Cyclopentyloxy)-7-methoxy-2-oxo-2H-chromen-4-ylamino)acetamide] | > 1000 nM
5 | COc1ccc2c(Nc3c(Cl)ccc(C)c3Cl)cc(=O)oc2c1OC1CCCC1 [Example 16, 8-(Cyclopentyloxy)-4-(2,6-dichloro-3-methylphenylamino)-7-methoxy-2H-chromen-2-one] | > 1000 nM
6 | COC(=O)c1cccc(Cl)c1Nc1cc(=O)oc2c(OC3CCCC3)c(OC)ccc12 [Example 20, Methyl 3-chloro-2-(8-(cyclopentyloxy)-7-methoxy-2-oxo-2H-chromen-4-ylamino)benzoate] | > 1000 nM
7 | COc1ccc2c(Nc3c(Cl)cncc3C(=O)O)cc(=O)oc2c1OC1CCCC1 [Example 22, 5-Chloro-4-(8-(cyclopentyloxy)-7-methoxy-2-oxo-2H-chromen-4-ylamino)nicotinic acid] | > 1000 nM
8 | COc1ccc2c(Nc3c(Cl)cncc3Cl)cc(=O)oc2c1OCC(C)C [Example 23, 4-(3,5-Dichloropyridin-4-ylamino)-8-isobutoxy-7-methoxy-2H-chromen-2-one] | < 1000 nM
9 | COc1ccc2c(Nc3c(Cl)cncc3Cl)cc(=O)oc2c1OCCCCBr [Example 25, 8-(4-Bromobutoxy)-4-(3,5-dichloropyridin-4-ylamino)-7-methoxy-2H-chromen-2-one] | < 1000 nM
10 | COc1ccc2c(Nc3c(Cl)cncc3Cl)cc(=O)oc2c1OCc1ccccc1 [Example 26, 8-(Benzyloxy)-4-(3,5-dichloropyridin-4-ylamino)-7-methoxy-2H-chromen-2-one] | < 1000 nM
11 | COc1ccc2c(Nc3c(Cl)cncc3Cl)cc(=O)oc2c1OCCCCN(C)C [Example 27, 4-(3,5-Dichloropyridin-4-ylamino)-8-(4-(dimethylamino)butoxy)-7-methoxy-2H-chromen-2-one] | < 1000 nM
12 | COc1ccc2c(Nc3c(Cl)cncc3Cl)cc(=O)oc2c1OCCCCCBr [Example 28, 8-(5-Bromopentyloxy)-4-(3,5-dichloropyridin-4-ylamino)-7-methoxy-2H-chromen-2-one] | < 1000 nM
13 | COc1ccc2c(Nc3c(Cl)cncc3Cl)cc(=O)oc2c1O [Example 29, 4-(3,5-Dichloropyridin-4-ylamino)-8-hydroxy-7-methoxy-2H-chromen-2-one] | < 1000 nM
14 | COc1ccc2c(Nc3c(Cl)cncc3Cl)cc(=O)oc2c1OCCCBr [Example 30, 8-(3-Bromopropoxy)-4-(3,5-dichloropyridin-4-ylamino)-7-methoxy-2H-chromen-2-one] | < 1000 nM
15 | COc1ccc2c(Nc3c(Cl)cncc3Cl)cc(=O)oc2c1OCCCCCN(C)C [Example 31, 4-(3,5-Dichloropyridin-4-ylamino)-8-(5-(dimethylamino)pentyloxy)-7-methoxy-2H-chromen-2-one] | < 1000 nM
16 | COc1ccc2c(Nc3c(Cl)cncc3Cl)cc(=O)oc2c1OCCCN(C)C [Example 32, 4-(3,5-Dichloropyridin-4-ylamino)-8-(3-(dimethylamino)propoxy)-7-methoxy-2H-chromen-2-one] | < 1000 nM
17 | COc1ccc2c(Nc3c(Cl)cncc3Cl)cc(=O)oc2c1OCc1ccccc1[N+](=O)[O-] [Example 33, 4-(3,5-Dichloropyridin-4-ylamino)-7-methoxy-8-(2-nitrobenzyloxy)-2H-chromen-2-one] | < 1000 nM
18 | COc1ccc2c(Nc3c(Cl)cncc3Cl)cc(=O)oc2c1OCc1cccc([N+](=O)[O-])c1 [Example 34, 4-(3,5-Dichloropyridin-4-ylamino)-7-methoxy-8-(3-nitrobenzyloxy)-2H-chromen-2-one] | < 1000 nM
19 | COc1ccc2c(Nc3c(Cl)cncc3Cl)cc(=O)oc2c1OCc1ccc([N+](=O)[O-])cc1 [Example 35, 4-(3,5-Dichloropyridin-4-ylamino)-7-methoxy-8-(4-nitrobenzyloxy)-2H-chromen-2-one] | < 1000 nM
20 | CCOC(=O)CCCOc1c(OC)ccc2c(Nc3c(Cl)cncc3Cl)cc(=O)oc12 [Example 36, Ethyl 4-(4-(3,5-dichloropyridin-4-ylamino)-7-methoxy-2-oxo-2H-chromen-8-yloxy)butanoate] | < 1000 nM
21 | CCOC(=O)CCCCOc1c(OC)ccc2c(Nc3c(Cl)cncc3Cl)cc(=O)oc12 [Example 37, Ethyl 5-(4-(3,5-dichloropyridin-4-ylamino)-7-methoxy-2-oxo-2H-chromen-8-yloxy)pentanoate] | < 1000 nM
22 | CCOC(=O)CCCCCOc1c(OC)ccc2c(Nc3c(Cl)cncc3Cl)cc(=O)oc12 [Example 38, Ethyl 6-(4-(3,5-dichloropyridin-4-ylamino)-7-methoxy-2-oxo-2H-chromen-8-yloxy)hexanoate] | < 1000 nM
23 | COc1ccc2c(N[C@H]3CC[C@@H](C(=O)O)CC3)cc(=O)oc2c1OC1CCCC1 [Example 39, cis-4-(8-(Cyclopentyloxy)-7-methoxy-2-oxo-2H-chromen-4-ylamino)cyclohexanecarboxylic acid] | > 1000 nM
24 | COc1ccc2c(Nc3c(Cl)cncc3Cl)cc(=O)oc2c1OCC1CCCC1 [Example 40, 8-(Cyclopentylmethoxy)-4-(3,5-dichloropyridin-4-ylamino)-7-methoxy-2H-chromen-2-one] | < 1000 nM
25 | COc1ccc2c(Nc3c(Cl)cncc3Cl)cc(=O)oc2c1OCCc1ccccc1 [Example 41, 4-(3,5-Dichloropyridin-4-ylamino)-7-methoxy-8-phenethoxy-2H-chromen-2-one] | < 1000 nM
26 | COc1ccc2c(Nc3c(Cl)cncc3Cl)cc(=O)oc2c1OCCCC(=O)O [Example 42, 4-(4-(3,5-Dichloropyridin-4-ylamino)-7-methoxy-2-oxo-2H-chromen-8-yloxy)butanoic acid] | < 1000 nM
27 | COc1ccc2c(Nc3c(Cl)cncc3Cl)cc(=O)oc2c1OCCCCC(=O)O [Example 43, 5-(4-(3,5-Dichloropyridin-4-ylamino)-7-methoxy-2-oxo-2H-chromen-8-yloxy)pentanoic acid] | < 1000 nM
28 | COc1ccc2c(Nc3c(Cl)cncc3Cl)cc(=O)oc2c1OCCCCCC(=O)O [Example 44, 6-(4-(3,5-Dichloropyridin-4-ylamino)-7-methoxy-2-oxo-2H-chromen-8-yloxy)hexanoic acid] | < 1000 nM

Second part, the molecule after the results:

Row | IC50 | Structure (SMILES)
29 | < 1000 nM | COc1ccc2c(Nc3c(Cl)cccc3Cl)cc(=O)oc2c1OC1CCCC1 [Example 1, 8-(Cyclopentyloxy)-4-(2,6-dichlorophenylamino)-7-methoxy-2H-chromen-2-one]
30 | < 1000 nM | COc1ccc2c(Cc3c(Cl)cncc3Cl)cc(=O)oc2c1OC1CCCC1 [Example 2, 8-(Cyclopentyloxy)-4-[(3,5-dichloropyridin-4-yl)methyl]-7-methoxy-2H-chromen-2-one]
31 | < 1000 nM | CCc1c(Nc2c(Cl)cncc2Cl)c2ccc(OC)c(OCC3CC3)c2oc1=O [Example 6, 8-(Cyclopropylmethoxy)-4-(3,5-dichloropyridin-4-ylamino)-3-ethyl-7-methoxy-2H-chromen-2-one]
32 | < 1000 nM | COc1ccc2c(NCC(=O)NO)cc(=O)oc2c1OC1CCCC1 [Example 10, 2-(8-(Cyclopentyloxy)-7-methoxy-2-oxo-2H-chromen-4-ylamino)-N-hydroxyacetamide]
33 | < 1000 nM | COc1ccc2c(Nc3c(Cl)cncc3Br)cc(=O)oc2c1OC1CCCC1 [Example 11, 4-(3-Bromo-5-chloropyridin-4-ylamino)-8-(cyclopentyloxy)-7-methoxy-2H-chromen-2-one]
34 | < 1000 nM | COc1ccc2c(Nc3c(C)cncc3C)cc(=O)oc2c1OC1CCCC1 [Example 12, 8-(Cyclopentyloxy)-4-(3,5-dimethylpyridin-4-ylamino)-7-methoxy-2H-chromen-2-one]
35 | < 1000 nM | COc1ccc2c(Nc3c(Cl)cncc3Cl)c(C)c(=O)oc2c1OC1CCCC1 [Example 13, 8-(Cyclopentyloxy)-4-(3,5-dichloropyridin-4-ylamino)-7-methoxy-3-methyl-2H-chromen-2-one]
36 | < 1000 nM | COc1ccc2c(Nc3c(Cl)cncc3Cl)c(F)c(=O)oc2c1OC1CCCC1 [Example 14, 8-(Cyclopentyloxy)-4-(3,5-dichloropyridin-4-ylamino)-3-fluoro-7-methoxy-2H-chromen-2-one]
37 | < 1000 nM | C=C(OCC)c1cncc(Cl)c1Nc1cc(=O)oc2c(OC3CCCC3)c(OC)ccc12 [Example 15, 4-(3-Chloro-5-(1-ethoxyvinyl)pyridin-4-ylamino)-8-(cyclopentyloxy)-7-methoxy-2H-chromen-2-one]
38 | < 1000 nM | COc1ccc2c(Nc3c(Cl)cccc3C(F)(F)F)cc(=O)oc2c1OC1CCCC1 [Example 17, 4-(2-Chloro-6-(trifluoromethyl)phenylamino)-8-(cyclopentyloxy)-7-methoxy-2H-chromen-2-one]
39 | < 1000 nM | COc1ccc2c(Nc3c(C)cccc3Cl)cc(=O)oc2c1OC1CCCC1 [Example 18, 4-(2-Chloro-6-methylphenylamino)-8-(cyclopentyloxy)-7-methoxy-2H-chromen-2-one]
40 | < 1000 nM | COc1ccc2c(Nc3ccccc3Cl)cc(=O)oc2c1OC1CCCC1 [Example 19, 4-(2-Chlorophenylamino)-8-(cyclopentyloxy)-7-methoxy-2H-chromen-2-one]
41 | < 1000 nM | COc1ccc2c(Nc3c(Cl)cncc3Cl)cc(=O)oc2c1OC(C)C [Example 21, 4-(3,5-Dichloropyridin-4-ylamino)-8-isopropoxy-7-methoxy-2H-chromen-2-one]
42 | < 1000 nM | COc1ccc2c(Nc3ccccc3Cl)cc(=O)oc2c1OCC1CC1 [Example 24, 4-(2-Chlorophenylamino)-8-(cyclopropylmethoxy)-7-methoxy-2H-chromen-2-one]
